What was measured:
[1] = biological target: T1, Gonadotropin-releasing hormone receptor (Homo sapiens, UniProt P30968); experiment: Binding affinity towards human gonadotropin-releasing hormone receptor expressed in HEK293 cells using des-Gly10-[125I]Tyr,5 DLeu,6 NMeLeu,7 Pro9-NEt GnRH as radioligand.; assay type: cell-based
T1 sequence (P30968 whole entry): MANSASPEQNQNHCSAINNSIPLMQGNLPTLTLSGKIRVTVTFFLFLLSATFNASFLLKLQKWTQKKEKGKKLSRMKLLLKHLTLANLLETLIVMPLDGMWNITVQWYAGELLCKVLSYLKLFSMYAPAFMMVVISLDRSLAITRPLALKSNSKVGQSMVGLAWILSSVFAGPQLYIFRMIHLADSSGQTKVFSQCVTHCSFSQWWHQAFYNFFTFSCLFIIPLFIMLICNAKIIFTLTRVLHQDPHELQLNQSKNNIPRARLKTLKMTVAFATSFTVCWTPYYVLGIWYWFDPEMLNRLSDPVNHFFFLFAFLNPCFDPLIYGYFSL

[2] = test system: HEK293; experiment: Inhibitory activity against GnRH (5 nM) stimulated [Ca2+] release in transfected cells; assay type: functional, cell-based; conditions: Homo sapiens

Ki [1] [nM] | SMILES | IC50 [2] [nM]
200 | Cc1c(-c2ccccc2F)c(=O)n(C[C@H](N)c2ccccc2)c(=O)n1CC1CCCCC1 | –
500 | Cc1c(-c2ccccc2F)c(=O)n(C[C@H](N)c2ccccc2)c(=O)n1CC(C)C | –
57 | Cc1c(-c2ccccc2F)c(=O)n(C[C@H](N)c2ccccc2)c(=O)n1Cc1ccccc1 | –
1000 | Cc1c(-c2ccccc2F)c(=O)n(C[C@H](N)c2ccccc2)c(=O)n1CCc1ccccc1 | –
700 | Cc1c(-c2ccccc2F)c(=O)n(C[C@H](N)c2ccccc2)c(=O)n1Cc1cccnc1 | –
0.7 | Cc1c(-c2ccccc2F)c(=O)n(C[C@H](N)c2ccccc2)c(=O)n1Cc1c(F)cccc1Cl | 2.8
1100 | Cc1c(-c2ccccc2F)c(=O)n(C[C@H](N)c2ccccc2)c(=O)n1CC1CC1 | –
75 | Cc1c(-c2ccccc2F)c(=O)n(C[C@H](N)c2ccccc2)c(=O)n1Cc1ccc(F)cc1 | –
77 | Cc1c(-c2ccccc2F)c(=O)n(C[C@H](N)c2ccccc2)c(=O)n1Cc1ccccn1 | –
230 | CCCCCn1c(C)c(-c2ccccc2F)c(=O)n(C[C@H](N)c2ccccc2)c1=O | –
> 10000 | Cc1c(-c2ccccc2F)c(=O)n(C[C@H](N)c2ccccc2)c(=O)n1CCc1ccccn1 | –
4 | Cc1c(-c2ccccc2F)c(=O)n(C[C@H](N)c2ccccc2)c(=O)n1Cc1ccccc1C(F)(F)F | –
33 | Cc1c(-c2ccccc2F)c(=O)n(C[C@H](N)c2ccccc2)c(=O)n1Cc1ccc(F)cc1Cl | –
230 | COc1ccccc1Cn1c(C)c(-c2ccccc2F)c(=O)n(C[C@H](N)c2ccccc2)c1=O | –
67 | Cc1c(-c2ccccc2F)c(=O)n(C[C@H](N)c2ccccc2)c(=O)n1Cc1cccc(F)c1 | –
6 | Cc1c(-c2ccccc2F)c(=O)n(C[C@H](N)c2ccccc2)c(=O)n1Cc1c(F)cccc1F | –
430 | Cc1ccc(Cn2c(C)c(-c3ccccc3F)c(=O)n(C[C@H](N)c3ccccc3)c2=O)o1 | –
20 | Cc1c(-c2ccccc2F)c(=O)n(C[C@H](N)c2ccccc2)c(=O)n1Cc1ccccc1F | –
> 10000 | Cc1c(-c2ccccc2F)c(=O)n(C[C@H](N)c2ccccc2)c(=O)n1CCN1CCNCC1 | –
> 10000 | Cc1c(-c2ccccc2F)c(=O)n(C[C@H](N)c2ccccc2)c(=O)n1CCO | –
> 10000 | Cc1c(-c2ccccc2F)c(=O)n(C[C@H](N)c2ccccc2)c(=O)n1CCN(C)C | –
27 | Cc1c(-c2ccccc2F)c(=O)n(C[C@H](N)c2ccccc2)c(=O)n1Cc1ccccc1Cl | –
140 | Cc1c(-c2ccccc2F)c(=O)n(C[C@H](N)c2ccccc2)c(=O)n1C(C)c1ccccc1 (some centres not stated) | –
35 | Cc1ccccc1Cn1c(C)c(-c2ccccc2F)c(=O)n(C[C@H](N)c2ccccc2)c1=O | –
1700 | COCCn1c(C)c(-c2ccccc2F)c(=O)n(C[C@H](N)c2ccccc2)c1=O | –
260 | Cc1c(-c2ccccc2F)c(=O)n(C[C@H](N)c2ccccc2)c(=O)n1C1CCCCC1 | –
